PubChem BioAssay (NCI)
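Growth conditions: 96-well plates. Treatment: test compound, 48 hours, 5 concentrations. Analysis: linear interpolation between bracketing concentrations; unreached endpoints set to highest concentration. TGI denotes the concentration required for complete inhibition of growth.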

Key:
Assay in all cases: NCI-60 cell line screen, 48 h
786-0 renal = tested on: 786-0 renal
A498 renal = tested on: A498 renal
A549 NSCLC = tested on: A549 NSCLC
ACHN renal = tested on: ACHN renal
CAKI-1 renal = tested on: CAKI-1 renal
CCRF-CEM leukemia = tested on: CCRF-CEM leukemia
COLO 205 colon = tested on: COLO 205 colon
DLD-1 colon = tested on: DLD-1 colon
DMS 114 small cell lung = tested on: DMS 114 small cell lung
DMS 273 small cell lung = tested on: DMS 273 small cell lung
EKVX NSCLC = tested on: EKVX NSCLC
HCC-2998 colon = tested on: HCC-2998 colon
HCT-116 colon = tested on: HCT-116 colon
HCT-15 colon = tested on: HCT-15 colon
HL-60(TB) leukemia = tested on: HL-60(TB) leukemia
HOP-18 NSCLC = tested on: HOP-18 NSCLC
HOP-92 NSCLC = tested on: HOP-92 NSCLC
HT29 colon = tested on: HT29 colon
IGROV1 ovarian = tested on: IGROV1 ovarian
K-562 leukemia = tested on: K-562 leukemia
KM12 colon = tested on: KM12 colon
KM20L2 colon = tested on: KM20L2 colon
LOX IMVI melanoma = tested on: LOX IMVI melanoma
LXFL 529 NSCLC = tested on: LXFL 529 NSCLC
M14 melanoma = tested on: M14 melanoma
M19-MEL melanoma = tested on: M19-MEL melanoma
MALME-3M melanoma = tested on: MALME-3M melanoma
MOLT-4 leukemia = tested on: MOLT-4 leukemia
NCI-H226 lung = tested on: NCI-H226 lung
NCI-H23 lung = tested on: NCI-H23 lung
NCI-H460 lung = tested on: NCI-H460 lung
NCI-H522 lung = tested on: NCI-H522 lung
OVCAR-3 ovarian = tested on: OVCAR-3 ovarian
OVCAR-4 ovarian = tested on: OVCAR-4 ovarian
OVCAR-5 ovarian = tested on: OVCAR-5 ovarian
OVCAR-8 ovarian = tested on: OVCAR-8 ovarian
RPMI-8226 leukemia = tested on: RPMI-8226 leukemia
RXF 393 renal = tested on: RXF 393 renal
SF-268 CNS = tested on: SF-268 CNS
SF-295 CNS = tested on: SF-295 CNS
SF-539 CNS = tested on: SF-539 CNS
SK-MEL-2 melanoma = tested on: SK-MEL-2 melanoma
SK-MEL-28 melanoma = tested on: SK-MEL-28 melanoma
SK-MEL-5 melanoma = tested on: SK-MEL-5 melanoma
SK-OV-3 ovarian = tested on: SK-OV-3 ovarian
SN12C renal = tested on: SN12C renal
SNB-19 CNS = tested on: SNB-19 CNS
SNB-75 CNS = tested on: SNB-75 CNS
SNB-78 CNS = tested on: SNB-78 CNS
SR leukemia = tested on: SR leukemia
SW-620 colon = tested on: SW-620 colon
TK-10 renal = tested on: TK-10 renal
U251 CNS = tested on: U251 CNS
UACC-257 melanoma = tested on: UACC-257 melanoma
UACC-62 melanoma = tested on: UACC-62 melanoma
UO-31 renal = tested on: UO-31 renal
XF 498 CNS = tested on: XF 498 CNS
HOP-62 NSCLC = tested on: HOP-62 NSCLC
RXF-631 renal = tested on: RXF-631 renal

Measured: TGI

COc1ccc(OC)c(CCc2ccccc2CC(=O)O)c1
not listed: HOP-62 NSCLC | RXF-631 renal
> 100 µM: all other assays above

CCOC(=O)C1=C(C)C2C3C(=O)OC(=O)C3C1(C)C1C(=O)OC(=O)C21 (configuration not stated)
not listed: CAKI-1 renal | HOP-18 NSCLC | NCI-H522 lung | OVCAR-5 ovarian | SR leukemia | XF 498 CNS
> 100 µM: all other assays above

CCCc1nn(C)c(CCC(=O)N(Cc2ccccc2)Cc2ccccc2)c1CC
not listed: CAKI-1 renal | DMS 273 small cell lung | K-562 leukemia | MOLT-4 leukemia | SR leukemia | RXF-631 renal
> 100 µM: all other assays above

CC1=C(C(=O)Nc2ccccc2C)C(c2ccccc2O)C(C(=O)Nc2ccccc2C)=C(C)N1
36.1 µM: DLD-1 colon
35.2 µM: DMS 273 small cell lung
36.9 µM: HCT-116 colon
74.7 µM: SNB-78 CNS
44.6 µM: LOX IMVI melanoma
37.5 µM: IGROV1 ovarian
70.1 µM: SF-268 CNS
61.8 µM: SK-MEL-5 melanoma
59.1 µM: SK-MEL-28 melanoma
49.4 µM: UACC-257 melanoma
36.3 µM: OVCAR-3 ovarian
61.5 µM: XF 498 CNS
65.8 µM: SNB-75 CNS
64.8 µM: A498 renal
66.8 µM: RPMI-8226 leukemia
35.7 µM: UACC-62 melanoma
50.8 µM: SR leukemia
50.4 µM: DMS 114 small cell lung
31.2 µM: 786-0 renal | KM12 colon
39.8 µM: M14 melanoma
29.4 µM: HCT-15 colon
40.2 µM: OVCAR-8 ovarian
45.8 µM: HOP-62 NSCLC
29.6 µM: HCC-2998 colon
54.8 µM: OVCAR-4 ovarian
64.3 µM: HT29 colon
47.3 µM: RXF 393 renal
31.1 µM: NCI-H460 lung
51 µM: LXFL 529 NSCLC
44 µM: SN12C renal
40.3 µM: SF-295 CNS
86 µM: TK-10 renal
45.6 µM: KM20L2 colon
38.4 µM: UO-31 renal
36.5 µM: SF-539 CNS
61.2 µM: HL-60(TB) leukemia
92.4 µM: MALME-3M melanoma
55.6 µM: HOP-18 NSCLC
52 µM: M19-MEL melanoma
47.9 µM: ACHN renal
82.2 µM: OVCAR-5 ovarian
35.3 µM: SK-MEL-2 melanoma
not listed: COLO 205 colon | NCI-H522 lung | SK-OV-3 ovarian | U251 CNS | RXF-631 renal
> 100 µM: all other assays above
